These are literature values, as cited in patent publication US10154980B2, “Anti-inflammatory omega-3 synergistic combinations” (LYCORED LTD., priority 2013, dated 2018).

The test system of the data set is NO production. The conditions noted are these: background, literature references.

Take `CC1=C[C@H](O)CC(C)(C)[C@H]1/C=C/C(C)=C/C=C/C(C)=C/C=C/C=C(C)/C=C/C=C(C)/C=C/C1=C(C)C[C@@H](O)CC1(C)C` [lutein, (3R,3′R, 6′R)-beta,epsilon-carotene-3,3′-diol]: the “inhibit NO production” value was “shown to inhibit NO production”. Turning to `CC(C)=CCC/C(C)=C/C=C/C(C)=C/C=C/C(C)=C/C=C/C=C(C)/C=C/C=C(C)/C=C/C=C(\C)CCC=C(C)C` [lycopene], the “inhibit NO production” value is “shown to inhibit NO production”.
